# In PMC8253220, “Molecular design, synthesis and in vitro biological evaluation of thienopyrimidine–hydroxamic acids as chimeric kinase HDAC inhibitors: a challenging approach to combat cancer” (Journal of Enzyme Inhibition and Medicinal Chemistry, 2021):
# Several values for one entry are separate records, joined by “and”; a condition that tells them apart may be missing. Equal values may be shown once.
# Columns and labels:
# Test in all cases: NCI one-dose screen
# Assay type in all cases: cell-based, human
# A549/ATCC = settings: NSCLC A549/ATCC, 10 µM single dose
# In short: (§1)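 At 10 μM, a single concentration, compounds were evaluated for antiproliferative effect in the NCI 60-line screen, with growth expressed relative to untreated control cells.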
# ACHN = settings: Renal ACHN, 10 µM single dose
# In short: as §1
# BT-549 = settings: Breast BT-549, 10 µM single dose
# In short: as §1
# CAKI-1 = settings: Renal CAKI-1, 10 µM single dose
# In short: as §1
# COLO 205 = settings: Colon COLO 205, 10 µM single dose
# In short: as §1
# DU-145 = settings: Prostate DU-145, 10 µM single dose
# In short: as §1
# EKVX = settings: NSCLC EKVX, 10 µM single dose
# In short: as §1
# HCT-116 = settings: Colon HCT-116, 10 µM single dose
# In short: as §1
# HL-60(TB) = settings: Leukemia HL-60(TB), 10 µM single dose
# In short: as §1
# HOP-62 = settings: NSCLC HOP-62, 10 µM single dose
# In short: as §1
# HS 578T = settings: Breast HS 578T, 10 µM single dose
# In short: as §1
# LOX IMVI = settings: Melanoma LOX IMVI, 10 µM single dose
# In short: as §1
# MALME-3M = settings: Melanoma MALME-3M, 10 µM single dose
# In short: as §1
# MCF7 = settings: Breast MCF7, 10 µM single dose
# In short: (§2)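 Percent inhibition; single 10 μM dose; NCI-60 cell panel; untreated cells as reference.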
# MDA-MB-231/ATCC = settings: Breast MDA-MB-231/ATCC, 10 µM single dose
# In short: as §1
# MOLT-4 = settings: Leukemia MOLT-4, 10 µM single dose
# In short: as §2
# NCI-H226 = settings: NSCLC NCI-H226, 10 µM single dose
# In short: as §1
# NCI-H322M = settings: NSCLC NCI-H322M, 10 µM single dose
# In short: as §1
# NCI-H460 = settings: NSCLC NCI-H460, 10 µM single dose
# In short: as §1
# NCI-H522 = settings: NSCLC NCI-H522, 10 µM single dose
# In short: as §1
# NCI/ADR-RES = settings: Ovarian NCI/ADR-RES, 10 µM single dose
# In short: as §1
# OVCAR-3 = settings: Ovarian OVCAR-3, 10 µM single dose
# In short: as §1
# OVCAR-8 = settings: Ovarian OVCAR-8, 10 µM single dose
# In short: as §1
# PC-3 = settings: Prostate PC-3, 10 µM single dose
# In short: (§3)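 Compounds were tested at a single dose of 10 μM across the full NCI-60 cell line panel. Growth was expressed as percent growth relative to untreated control cells, reported as percent inhibition.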
# RXF 393 = settings: Renal RXF 393, 10 µM single dose
# In short: as §1
# SF-268 = settings: CNS SF-268, 10 µM single dose
# In short: as §2
# SF-295 = settings: CNS SF-295, 10 µM single dose
# In short: as §1
# SF-539 = settings: CNS SF-539, 10 µM single dose
# In short: as §2
# SK-MEL-28 = settings: Melanoma SK-MEL-28, 10 µM single dose
# In short: as §3
# SN12C = settings: Renal SN12C, 10 µM single dose
# In short: as §1
# SNB-19 = settings: CNS SNB-19, 10 µM single dose
# In short: as §1
# SR = settings: Leukemia SR, 10 µM single dose
# In short: as §1
# SW-620 = settings: Colon SW-620, 10 µM single dose
# In short: as §3
# TK-10 = settings: Renal TK-10, 10 µM single dose
# In short: as §1
# U251 = settings: CNS U251, 10 µM single dose
# In short: as §1
# UACC-62 = settings: Melanoma UACC-62, 10 µM single dose
# In short: as §1
structure (smiles),measurement,setting,value
"Cc1c(C(=O)NO)sc2ncnc(Nc3ccc(F)c(Cl)c3)c12 [Compound 15d, 4–(3-chloro-4-fluorophenylamino)-N-hydroxy-5-methylthieno[2,3-d]pyrimidine-6-carboxamide]",Growth Percent,A549/ATCC,100.7% and 100.72%
same,Growth Percent,ACHN,97.6% and 97.62%
same,Growth Percent,BT-549,114.0% and 114.08%
same,Growth Percent,CAKI-1,90.4% and 90.42%
same,Growth Percent,COLO 205,112.3% and 112.34%
same,Growth Percent,DU-145,101.9% and 101.96%
same,Growth Percent,EKVX,88.0% and 88.08%
same,Growth Percent,HCT-116,106.8%
same,Growth Percent,HL-60(TB),101.9% and 101.99%
same,Growth Percent,HOP-62,99.3%
same,Growth Percent,HS 578T,102.4% and 102.42%
same,Growth Percent,LOX IMVI,101.3% and 101.32%
same,Growth Percent,MALME-3M,116.1% and 116.15%
same,Growth Percent,MCF7,93.8% and 93.88%
same,Growth Percent,MDA-MB-231/ATCC,97.2% and 97.25%
same,Growth Percent,MOLT-4,110.0% and 110.03%
same,Growth Percent,NCI-H226,103.2% and 103.24%
same,Growth Percent,NCI-H322M,107.6% and 107.66%
same,Growth Percent,NCI-H460,101.5% and 101.54%
same,Growth Percent,NCI-H522,88.1% and 88.16%
same,Growth Percent,NCI/ADR-RES,99.6% and 99.61%
same,Growth Percent,OVCAR-3,108.5% and 108.52%
same,Growth Percent,OVCAR-8,105.0% and 105.01%
same,Growth Percent,PC-3,110.4% and 110.42%
same,Growth Percent,RXF 393,100.3% and 100.37%
same,Growth Percent,SF-268,96.5%
same,Growth Percent,SF-295,93.7% and 93.74%
same,Growth Percent,SF-539,98.5% and 98.57%
same,Growth Percent,SK-MEL-28,109.6% and 109.62%
same,Growth Percent,SN12C,100.1% and 100.14%
same,Growth Percent,SNB-19,91.8%
same,Growth Percent,SR,101.4% and 101.45%
same,Growth Percent,SW-620,108.2% and 108.22%
same,Growth Percent,TK-10,118.5% and 118.53%
same,Growth Percent,U251,98.2%
same,Growth Percent,UACC-62,88.5% and 88.53%
